Source: US11078198B2 (BRISTOL-MYERS SQUIBB COMPANY, priority 2017, dated 2021)

Each compound was assayed against T1, human FXR (Homo sapiens, UniProt Q96RI1) (assay: transient human FXR/Gal4-luciferase reporter assay). Conditions: Gal4-hFXR transfected HEK293 reporter cells; relative to 8 μM GW-4064.
T1 construct: expressed in transfected cells; host or cells: HEK293 cells stably carrying a 5xGal4-response-element firefly luciferase reporter, transiently transfected with pcDNA3.1-Gal4-FXR
T1 sequence (Q96RI1 262-486 limits assumed): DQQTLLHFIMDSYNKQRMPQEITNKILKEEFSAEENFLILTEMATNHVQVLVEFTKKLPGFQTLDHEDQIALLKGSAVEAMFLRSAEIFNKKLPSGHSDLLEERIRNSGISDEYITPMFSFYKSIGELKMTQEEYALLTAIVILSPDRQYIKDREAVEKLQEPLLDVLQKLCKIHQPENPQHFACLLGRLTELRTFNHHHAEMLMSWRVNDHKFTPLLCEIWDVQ
Assay type: cell-based
Method: A Gal4-hFXR fusion construct reporter system was used as the primary assay to characterize compound activity. A construct including 5 copies of the Gal4 promoter response element upstream of a firefly luciferase reporter cDNA was stably expressed in HEK293 cells. This reporter cell line was maintained in Dulbecco's Modified Eagle's medium (DMEM; Gibco) supplemented with 1% penicillin-streptomycin (P/S) solution, 500 μg/mL Zeocin and 10% charcoal/dextran-treated fetal bovine serum (cs-FBS) at 37° C. in a humidified 5% CO2 atmosphere. Another plasmid was constructed in which the human cytomegalovirus promoter in the pcDNA3.1 vector directs the expression of the cDNA encoding a fusion protein comprised of the DNA binding domain from the Gal4 transcription factor fused to the ligand binding domain from human FXR.
The day prior to transfection, the reporter cells in culture are detached from the plate with trypsin and plated into a T75 flask at a sufficient density to achieve approximately 90% confluence the next morning. The transfection reagents are prepared by separately diluting 25 μg of the pcDNA3.1-Gal4-FXR plasmid into 1.87 mL of Opti-MEM (Thermo-Fisher), and 40 μL of Lipofectamine 2000 (Thermo-Fisher) into 1.87 mL of Opti-MEM, and then adding the diluted DNA solution into the diluted Lipofectamine 2000 solution and incubating at room temperature for 15-20 minutes. The mixture is further diluted with 10 mL of a solution comprised of DMEM, 10% cs-FBS, and 1% P/S immediately prior to transferring to the cells. The maintenance culture media is aspirated from the cells and the final transfection mixture is added before the cells are incubated overnight at 37° C. in a humidified 5% CO2 atmosphere. This protocol can be scaled up, and the transiently transfected cells can be cryopreserved in an assay-ready format.
For compound testing, 100 nL of the compounds (serial dilutions in DMSO) are dispensed with an Echo acoustic dispenser (Labcyte) into the wells of a Corning/Costar clear bottom 384-well white plate. The transfected cells are harvested, counted, and diluted such that 10-25,000 cells in 25 μL are plated into each well of the 384-well compound assay plate. The compound-treated cells are incubated overnight at 37° C. in a humidified 5% CO2 atmosphere.

Going from `CS(=O)(=O)NC(=O)c1cc(F)c2nc(N3CCC4(C=C(c5c(-c6c(Cl)cncc6Cl)noc5C5CC5)C4)CC3)sc2c1` [Example 182, 2-(2-(5-Cyclopropyl-3-(3,5-dichloropyridin-4-yl)isoxazol-4-yl)-7-azaspiro[3.5]non-1-en-7-yl)-4-fluoro-N-(methylsulfonyl)benzo[d]thiazole-6-carboxamide] to `Cc1cccc(Cl)c1-c1noc(C2CC2)c1C1=CC2(CCN(c3nc4c(F)cc(C(=O)O)cc4s3)CC2)C1` [Example 103, 2-(2-(3-(2-Chloro-6-methylphenyl)-5-cyclopropylisoxazol-4-yl)-7-azaspiro[3.5]non-1-en-7-yl)-4-fluorobenzo[d]thiazole-6-carboxylic acid], the EC50 falls from 688 nM to 19 nM (36-fold). The second is the more potent here.

Going from `COc1cc(C(=O)O)nc2ccc(N3CCC4(C=C(c5c(-c6ncccc6Cl)noc5C5CC5)C4)CC3)cc12` [Example 145, 6-(2-(3-(3-Chloropyridin-2-yl)-5-cyclopropylisoxazol-4-yl)-7-azaspiro[3.5]non-1-en-7-yl)-4-methoxyquinoline-2-carboxylic acid] to `O=C(O)c1cc2ccc(N3CCC4(C=C(c5c(-c6ncccc6Cl)noc5C5CC5)C4)CC3)cc2cn1` [Example 161, 7-(2-(3-(3-Chloropyridin-2-yl)-5-cyclopropylisoxazol-4-yl)-7-azaspiro[3.5]non-1-en-7-yl) isoquinoline-3-carboxylic acid], the EC50 rises from 160 nM to 2320 nM (14-fold). The first is the more potent here.

Going from `COc1cc(C(=O)O)nc2ccc(N3CCC4(C=C(c5c(-c6c(Cl)cc(F)cc6Cl)noc5C5CC5)C4)CC3)cc12` [Example 112, 6-(2-(5-Cyclopropyl-3-(2,6-dichloro-4-fluorophenyl)isoxazol-4-yl)-7-azaspiro[3.5]non-1-en-7-yl)-4-methoxyquinoline-2-carboxylic acid] to `Cc1cccc(Cl)c1-c1noc(C2CC2)c1C1=CC2(CCN(c3ccc4nc(C(=O)O)cc(C(F)(F)F)c4c3)CC2)C1` [Example 89, 6-(2-(3-(2-Chloro-6-methylphenyl)-5-cyclopropylisoxazol-4-yl)-7-azaspiro[3.5]non-1-en-7-yl)-4-(trifluoromethyl)quinoline-2-carboxylic acid], the EC50 rises from 54 nM to 202 nM (3.7-fold). The first is the more potent here.

Going from `O=C(O)c1nc(C(F)(F)F)n2cc(N3CCC4(C=C(c5c(-c6c(Cl)cccc6Cl)noc5C5CC5)C4)CC3)ccc12` [Example 126, 6-(2-(5-Cyclopropyl-3-(2,6-dichlorophenyl)isoxazol-4-yl)-7-azaspiro[3.5]non-1-en-7-yl)-3-(trifluoromethyl)imidazo[1,5-a]pyridine-1-carboxylic acid] to `O=C(O)c1nc(C(F)(F)F)n2cc(N3CCC4(C=C(c5c(-c6ccccc6OC(F)(F)F)noc5C5CC5)C4)CC3)ccc12` [Example 166, 6-(2-(5-Cyclopropyl-3-(2-(trifluoromethoxy)phenyl)isoxazol-4-yl)-7-azaspiro[3.5]non-1-en-7-yl)-3-(trifluoromethyl)imidazo[1,5-a]pyridine-1-carboxylic acid], the EC50 rises from 102 nM to 494 nM (4.8-fold). The first is the more potent here.

Compared with `Cc1cc(C(=O)O)nc(N2CCC3(C=C(c4c(-c5ccccc5C(F)(F)F)noc4C4CC4)C3)CC2)n1` [Example 169, 2-(2-(5-Cyclopropyl-3-(2-(trifluoromethyl)phenyl)isoxazol-4-yl)-7-azaspiro[3.5]non-1-en-7-yl)-6-methylpyrimidine-4-carboxylic acid], `Cn1nc(C(=O)O)c2ccc(N3CCC4(C=C(c5c(-c6ccccc6C(F)(F)F)noc5C5CC5)C4)CC3)cc21` [Example 164, 6-(2-(5-Cyclopropyl-3-(2-(trifluoromethyl)phenyl)isoxazol-4-yl)-7-azaspiro[3.5]non-1-en-7-yl)-1-methyl-1H-indazole-3-carboxylic acid] is 3.3-fold lower in EC50: 1300 nM for the first, 392 nM for the second.

`O=C(NS(=O)(=O)C1CC1)c1cc(OC(F)F)c2cc(N3CCC4(C=C(c5c(-c6ncccc6Cl)noc5C5CC5)C4)CC3)ccc2n1` [Example 189, 6-(2-(3-(3-Chloropyridin-2-yl)-5-cyclopropylisoxazol-4-yl)-7-azaspiro[3.5]non-1-en-7-yl)-N-(cyclopropylsulfonyl)-4-(difluoromethoxy)quinoline-2-carboxamide] and `O=C(NS(=O)(=O)C1CC1)c1cc(C(F)(F)F)c2cc(N3CCC4(C=C(c5c(-c6c(Cl)cncc6Cl)noc5C5CC5)C4)CC3)ccc2n1` [Example 183, 6-(2-(5-Cyclopropyl-3-(3,5-dichloropyridin-4-yl)isoxazol-4-yl)-7-azaspiro[3.5]non-1-en-7-yl)-N-(cyclopropylsulfonyl)-4-(trifluoromethyl)quinoline-2-carboxamide] are within 1.5-fold of each other in EC50: 48 nM for the first, 55 nM for the second.

Compared with `O=C(O)c1cc(F)c2nc(N3C4CCC3CC3(CC(c5c(-c6c(Cl)cccc6Cl)noc5C5CC5)C3)C4)sc2c1` (centres unmarked) [Example 15, 2-(3′-(5-Cyclopropyl-3-(2,6-dichlorophenyl)isoxazol-4-yl)-8-azaspiro[bicyclo[3.2.1]octane-3,1′-cyclobutan]-8-yl)-4-fluorobenzo[d]thiazole-6-carboxylic acid], `CC(C)c1onc(-c2c(Cl)cccc2Cl)c1C1=CC2(CCN(c3nc4c(F)cc(C(=O)O)cc4s3)CC2)C1` [Example 49, 2-(2-(3-(2,6-Dichlorophenyl)-5-isopropylisoxazol-4-yl)-7-azaspiro[3.5]non-1-en-7-yl)-4-fluorobenzo[d]thiazole-6-carboxylic acid] is 5.3-fold lower in EC50: 301 nM for the first, 57 nM for the second. The second is the more potent here.

Going from `O=C(O)c1cc(F)c2nc(N3CCC4(CC3)COC(c3c(-c5ccccc5OC(F)(F)F)noc3C3CC3)O4)sc2c1` (centres unmarked) [Example 42, 2-(2-(5-cyclopropyl-3-(2-(trifluoromethoxy)phenyl)isoxazol-4-yl)-1,3-dioxa-8-azaspiro[4.5]decan-8-yl)-4-fluorobenzo[d]thiazole-6-carboxylic acid] to `O=C(O)c1ccc(N2CCC3(C=C(c4c(-c5ccccc5OC(F)(F)F)noc4C4CC4)C3)CC2)nn1` [Example 18, 6-(2-(5-Cyclopropyl-3-(2-(trifluoromethoxy)phenyl)isoxazol-4-yl)-7-azaspiro[3.5]non-1-en-7-yl)pyridazine-3-carboxylic acid], the EC50 rises from 1000 nM to 1500 nM (1.5-fold).

Going from `O=C(O)c1cnc2nc(N3CCC4(C=C(c5c(-c6c(Cl)cccc6Cl)noc5C5CC5)C4)CC3)sc2c1` [Example 177, 2-(2-(5-Cyclopropyl-3-(2,6-dichlorophenyl)isoxazol-4-yl)-7-azaspiro[3.5]non-1-en-7-yl)thiazolo[4,5-b]pyridine-6-carboxylic acid] to `Cc1c(N2CCC3(C=C(c4c(-c5c(Cl)cccc5Cl)noc4C4CC4)C3)CC2)ccc2cc(C(=O)O)cnc12` [Example 132, 7-(2-(5-Cyclopropyl-3-(2,6-dichlorophenyl)isoxazol-4-yl)-7-azaspiro[3.5]non-1-en-7-yl)-8-methylquinoline-3-carboxylic acid], the EC50 rises from 121 nM to 958 nM (7.9-fold).

Going from `O=C(O)c1ccc(N2CCC3(C=C(c4c(-c5c(Cl)cccc5Cl)noc4C4CC4)C3)CC2)cc1` [Example 10, 4-(2-(5-Cyclopropyl-3-(2,6-dichlorophenyl)isoxazol-4-yl)-7-azaspiro[3.5]non-1-en-7-yl)benzoic acid] to `O=C(O)c1ccc(N2CCC3(C=C(c4c(-c5c(Cl)cncc5Cl)noc4C4CC4)C3)CC2)nc1` [Example 66, 6-(2-(5-Cyclopropyl-3-(3,5-dichloropyridin-4-yl)isoxazol-4-yl)-7-azaspiro[3.5]non-1-en-7-yl)nicotinic acid], the EC50 rises from 135 nM to 342 nM (2.5-fold). The first is the more potent here.

Going from `O=C(O)c1cc(OC(F)F)c2cc(N3CCC4(C=C(c5c(-c6ccccc6C(F)(F)F)noc5C5CC5)C4)CC3)ccc2n1` [Example 58, 6-(2-(5-Cyclopropyl-3-(2-(trifluoromethyl)phenyl)isoxazol-4-yl)-7-azaspiro[3.5]non-1-en-7-yl)-4-(difluoromethoxy)quinoline-2-carboxylic acid] to `O=C(O)c1cc(OC(F)F)c2cc(N3CCC4(C=C(c5c(-c6cnccc6C(F)(F)F)noc5C5CC5)C4)CC3)ccc2n1` [Example 75, 6-(2-(5-Cyclopropyl-3-(4-(trifluoromethyl)pyridin-3-yl)isoxazol-4-yl)-7-azaspiro[3.5]non-1-en-7-yl)-4-(difluoromethoxy)quinoline-2-carboxylic acid], the EC50 rises from 2.3 nM to 35 nM (15-fold). The first is the more potent here.

Work on `O=C(O)c1ccc2cc(N3CCC4(C=C(c5c(-c6cnccc6C(F)(F)F)noc5C5CC5)C4)CC3)ccc2n1` [Example 154, 6-(2-(5-Cyclopropyl-3-(4-(trifluoromethyl)pyridin-3-yl)isoxazol-4-yl)-7-azaspiro[3.5]non-1-en-7-yl)quinoline-2-carboxylic acid] yielded an EC50 of 554 nM.
